Test results as given in patent publication US6596778B1, “β-endorphin peptides for treating muscle-wasting diseases” (The University of Birmingham, priority 1997, dated 2003).
Where a SMILES comes first, the peptide text is derived from it. Where no end group is shown, it is not given here. [ ]: non-standard residue; d: D form. Sar = CNCC(=O)O

Legend:
mouse diaphragm muscle [1] = assay type: cell-based, mice, C57BL/6j strain; conditions: for blockade of the agonist's/peptide's effect on contractile responses by BNTX (d1-opioid antagonist): BNTX 2.5×10^−7 M; for blockade of the agonist's/peptide's effect on contractile responses by BNTX (d1-opioid antagonist) / blockade of the agonist's/peptide's effect on contractile responses by NTB (d2-opioid antagonist): agonist/peptide 2.5×10^−7 M; for blockade of the agonist's/peptide's effect on contractile responses by NTB (d2-opioid antagonist): NTB 2.5×10^−7 M; for blockade of the peptide's effect on contractile responses by naloxone: naloxone 2.5×10^−6 M; for blockade of the peptide's effect on contractile responses by naloxone / 1/2 relaxation time / Time to peak: peptide 2.5×10^−7 M; for 1/2 relaxation time / Time to peak: low frequency indirect stimulation, mean ± S.E.M.
Protocol: (§1) Adult female mice, 3-4 months of age, of the C57BL/6j strain were killed by cervical dislocation and the skin and musculature around the rib cage were removed. The diaphragm and part of the rib cage were carefully dissected out along with a length of the left phrenic nerve. The left hemidiaphragm (together with the left phrenic nerve stump) was pinned out in an organ bath containing oxygenated Krebs solution which was gassed continuously with 95% O2-5% CO2 at room temperature (approximately 20° C.) as described in Khan, S.; Smith, M. E., Muscle Nerve, 18, 1250-1256; 1995. The central tendon was attached with the aid of a silk thread to a force transducer (Dynamometer, model UF1), and the phrenic nerve was introduced into the end of a suction electrode for indirect stimulation.
(§2) The phrenic nerve was stimulated continuously at a low frequency (0.5 Hz) with supramaximum square wave pulses of 0.2 msec width using a dual channel stimulator (Digitimer D4030). The muscle was allowed to equilibrate until the responses of the stimulated muscle had reached a constant amplitude (approximately 20 min). Krebs solution ([…]), or a solution ([…]) of the appropriate peptide, was added to the centre of the organ bath whilst the contractions were being recorded.
(§3) Direct stimulation of the muscle was effected by two stainless steel needle electrodes placed near the centre of the hemidiaphragm. The position of the force transducer was adjusted until a constant resting tension was seen. When direct stimulation of the muscle was employed d-tubocurarine chloride (2.5×10^−6M) was included in the bathing medium to block the acetylcholine (ACh) receptors and prevent indirect stimulation of the muscles via the motor nerve terminals. The phrenic nerve was stimulated continuously at 0.5 Hz, d-tubocurarine was added to the organ bath, and then, when the responses to nerve stimulation had ceased, the muscle was subjected to continuous direct supramaximum stimulation at a frequency of 0.5 Hz. […] The amplitude, time to peak and half relaxation time of the contractions developed in response to indirect and direct stimulation were determined. The half-relaxation time of the contractions was expressed as the time taken for the tension to decline from the maximum amplitude to half maximum. The dose-response curves were analyzed using a Kaloidograph software package to determine the values for EC50 and maximum response. The significance of the results was determined, unless otherwise stated, using ANOVA, with treatment as the grouping factor, followed by the Bonferroni-Dunn post hoc test.

dystrophic mice = test: Chronic intravenous injection in dystrophic mice (body weight, EDL muscle weight, CPK in blood and muscle); assay type: in vivo
Protocol: In one series of experiments, the C-terminal peptide, glycylglutamine, was injected intravenously into the blood of dystrophic mice 4 to 5 times a week in an amount of approximately 1.5 microgram/g body weight each time over a seven week period. Control mice were injected with the same volume of saline at the same times. There were six mice in each group.
The following measurements were made:
1. Change in body weight (the dystrophic mice would usually not gain significant weight over seven weeks and might even lose weight-depending on their age).
2. Weight of the extensor digitorum longus (EDL) muscle.
3. Level of CPK in the blood (a diagnostic test for muscular dystrophy is to measure the level of CPK in the blood. In muscle diseases, the blood levels of enzymes such as CPK are elevated and in muscular dystrophy the levels can be very high).
4. CPK enzyme levels in the muscle.

mouse diaphragm muscle [2] = test: Contractions of hemidiaphragm in response to direct stimulation of the muscle in the presence of d-tubocurarine; assay type: cell-based, mice, C57BL/6j strain; conditions: peptide 2.5×10^−8 M, mean ± S.E.M.
Protocol: as §1
as §3, with “terminals.” for “terminals. The phrenic nerve was stimulated continuously at 0.5 Hz, d-tubocurarine was added to the organ bath, and then, when the responses to nerve stimulation had ceased, the muscle was subjected to continuous direct supramaximum stimulation at a frequency of 0.5 Hz.”, “test. […]” for “test.”

[3] = system: CPK leakage into the blood; conditions: intravenous injection of β-endorphin alone; cited from earlier work
mouse diaphragm muscle [4] = test: Contractions of hemidiaphragm in response to nerve stimulation in the presence of neostigmine sulphate; assay type: cell-based, mice, C57BL/6j strain; conditions: neostigmine sulphate 10^−5 M, peptide 10^−7 M; mean ± S.E.M.
Protocol: as §1
as §2, with “recorded. […]” for “recorded.”

[5] = indirect stimulation 0.5 Hz, mean ± SEM

Row | Compound | effect on the amplitude of the contractions (in words) (mouse diaphragm muscle [1]; indirect stimulation 0.5 Hz) | blockade of the agonist's/peptide's effect on contractile responses by NTB (d2-opioid antagonist) (mouse diaphragm muscle [1]) | maximum increase in the response (mouse diaphragm muscle [1]; [5]) | blockade of the peptide's effect on contractile responses by naloxone (mouse diaphragm muscle [1]) | tension developed, % of the control values (absence of added peptide) (mouse diaphragm muscle [2]) [%] | 1/2 relaxation time (mouse diaphragm muscle [1]) | Time to peak (mouse diaphragm muscle [1]) | other results
1 | N[C@@H](CCC(=O)O)C(=O)O [L-glutamic acid] | no effect |  |  |  |  |  |  | 
2 | CC(C)[C@H](NC(=O)[C@H](CCC(=O)O)NC(=O)[C@H](Cc1ccccc1)NC(=O)[C@@H](C)NC(=O)[C@@H](N)Cc1ccc(O)cc1)C(=O)N[C@H](C(=O)NCC(N)=O)C(C)C [deltorphin II] |  |  |  |  |  |  |  | EC50 (mouse diaphragm muscle [1]; indirect stimulation 0.5 Hz, room temperature, read-out: EC50 for increase in contractile response): 0.2 nM
3 | NCC(=O)N[C@@H](CCC(N)=O)C(=O)O [glycylglutamine, glycyl-L-glutamine] (H-Gly-Gln-OH) | immediate increase | Neither naloxone, BNTX, nor NTB blocked | 18.5±1.5% | Neither naloxone, BNTX, nor NTB blocked | 98.7±0.9 |  |  | increase in body weight (dystrophic mice; i.v. approximately 1.5 microgram/g 4 to 5 times a week, seven week period, statistically significant): approximately 12%; reduction of CPK level in the blood (dystrophic mice; i.v. approximately 1.5 microgram/g 4 to 5 times a week, seven weeks): 25%; increase in EDL muscle weight (dystrophic mice; i.v. approximately 1.5 microgram/g 4 to 5 times a week, seven weeks, not statistically significant): approximately 5%; increase of enzyme (CPK) concentration in the EDL muscle (dystrophic mice; seven weeks, calculated on a wet weight basis): 55%; blockade of the agonist's/peptide's effect on contractile responses by BNTX (d1-opioid antagonist) (mouse diaphragm muscle [1]): Neither naloxone, BNTX, nor NTB blocked; lowest concentration at which significant increases in contractile responses were seen (mouse diaphragm muscle [1]; indirect stimulation): 10^−10 M
4 | CC[C@H](C)[C@H](NC(=O)[C@H](C)NC(=O)[C@H](CC(N)=O)NC(=O)[C@H](CCCCN)NC(=O)[C@H](Cc1ccccc1)NC(=O)[C@H](CC(C)C)NC(=O)[C@@H](NC(=O)[C@@H](NC(=O)[C@H](CC(C)C)NC(=O)[C@@H]1CCCN1C(=O)[C@@H](NC(=O)[C@H](CCC(N)=O)NC(=O)[C@H](CO)NC(=O)[C@H](CCCCN)NC(=O)[C@H](CCC(=O)O)NC(=O)[C@H](CO)NC(=O)[C@@H](NC(=O)[C@H](CCSC)NC(=O)[C@H](Cc1ccccc1)NC(=O)CNC(=O)CNC(=O)[C@@H](N)Cc1ccc(O)cc1)[C@@H](C)O)[C@@H](C)O)C(C)C)[C@@H](C)O)C(=O)N[C@H](C(=O)N[C@@H](CCCCN)C(=O)N[C@@H](CC(N)=O)C(=O)N[C@@H](C)C(=O)N[C@@H](Cc1ccc(O)cc1)C(=O)N[C@@H](CCCCN)C(=O)N[C@@H](CCCCN)C(=O)NCC(=O)N[C@@H](CCC(=O)O)C(=O)O)[C@@H](C)CC [β-endorphin] | immediate increase | neither | 34.4±2.9% | complete blockade |  | 99.6 ± 0.3 percentage of the untreated controls | 94.1 ± 0.5 percentage of the untreated controls | effect in preventing CPK leakage into the blood [3]: little effect
5 | Ac-K[dK][Sar]E [β-endorphin28-31 analogue] | immediate increase | Neither naloxone, BNTX, nor NTB blocked | 16.7±0.9% | Neither naloxone, BNTX, nor NTB blocked | 100±1.1 | 102.8 ± 2.6 percentage of the untreated controls | 95.9 ± 0.3 percentage of the untreated controls | blockade of the agonist's/peptide's effect on contractile responses by BNTX (d1-opioid antagonist) (mouse diaphragm muscle [1]): Neither naloxone, BNTX, nor NTB blocked; duration of the effect on amplitude after addition of the peptide (mouse diaphragm muscle [1]; indirect stimulation): at least 6 minutes; lowest concentration at which significant increases in contractile responses were seen (mouse diaphragm muscle [1]; indirect stimulation): 10^−10 M; tension developed in the presence of neostigmine sulphate (mouse diaphragm muscle [4]): 103.4±1.0%
6 | N-Acetyl β-endorphin (Ac-YGGFMTSEKSQTPLVTLFKNAIIKNAYKKGE; UniProt P01189 237-267, looked up) | no significant effect |  |  |  |  |  |  | responses in the presence of the peptide (mouse diaphragm muscle [1]; three preparations, concentration not given, mean ± SEM): 101.5±0.7%
7 | β-Endorphin 1-16 (YGGFMTSEKSQTPLVT; Beta-endorphin; UniProt P01189 237-252, looked up, fragment) [β-endorphin fragment (α-endorphin)] | no significant effect |  |  |  |  |  |  | tension developed, % of the control tension (mouse diaphragm muscle [1]; peptide 10^−6 M, indirect stimulation): 102.0±0.2%
8 | β-endorphin1-27 (YGGFMTSEKSQTPLVTLFKNAIIKNAY; Beta-endorphin; UniProt P01189 237-263, looked up, fragment) | immediate increase | neither | not maximum even at 10^−6 M | had no effect on the amplitude of the contractions | 99.6±0.5 | 99.4 ± 0.4 percentage of the untreated controls | 98.1 ± 0.4 percentage of the untreated controls | tension developed in the presence of neostigmine sulphate (mouse diaphragm muscle [4]): 102.3±1.2%
